Molecular target: T1, Human TRPV3 expressing CHO cells (Homo sapiens, UniProt Q8NET8)
T1 construct: expressed in transfected cells; host or cells: CHO cells, kept under G-418 selection
T1 sequence (Q8NET8 1-790): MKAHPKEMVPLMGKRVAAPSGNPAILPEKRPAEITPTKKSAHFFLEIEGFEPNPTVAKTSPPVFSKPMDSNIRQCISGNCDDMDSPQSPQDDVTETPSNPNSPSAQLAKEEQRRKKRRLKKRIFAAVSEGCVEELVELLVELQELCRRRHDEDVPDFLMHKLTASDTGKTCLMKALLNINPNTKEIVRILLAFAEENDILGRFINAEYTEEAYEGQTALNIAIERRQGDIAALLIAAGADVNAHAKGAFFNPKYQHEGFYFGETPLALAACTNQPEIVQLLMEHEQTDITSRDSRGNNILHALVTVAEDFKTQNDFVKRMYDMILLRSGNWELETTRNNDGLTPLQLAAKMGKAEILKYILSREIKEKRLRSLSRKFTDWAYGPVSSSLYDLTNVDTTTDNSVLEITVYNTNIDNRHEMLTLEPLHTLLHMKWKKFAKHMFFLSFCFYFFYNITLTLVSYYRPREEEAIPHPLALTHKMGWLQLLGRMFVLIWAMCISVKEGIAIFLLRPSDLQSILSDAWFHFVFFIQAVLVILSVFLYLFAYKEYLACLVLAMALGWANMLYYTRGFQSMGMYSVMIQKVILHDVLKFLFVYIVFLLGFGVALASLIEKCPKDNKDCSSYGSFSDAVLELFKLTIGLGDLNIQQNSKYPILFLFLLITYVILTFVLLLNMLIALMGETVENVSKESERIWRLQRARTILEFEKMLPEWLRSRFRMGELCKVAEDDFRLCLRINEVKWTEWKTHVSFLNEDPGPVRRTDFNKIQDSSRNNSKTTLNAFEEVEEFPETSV
Assay: 45Calcium uptake assay: inhibition of 2-APB induced cellular uptake of radioactive calcium
Type: cell-based
Conditions: 2-APB 500 μM; for inhibition at 1 µM / Percentage inhibition at 1.0 μM: compound at 1.0 μM; for inhibition at 1 µM: read-out: Percentage inhibition at 1.0 μM; for inhibition at 10 µM / Percentage inhibition at 10.0 μM: compound at 10.0 μM; for inhibition at 10 µM: read-out: Percentage inhibition at 10.0 μM; for IC50: class symbols
Source text: Certain illustrative compounds within the scope of the present invention are screened for TRPV3 activity according to a modified procedure described in (a) Tóth, A. et al. Life Sciences 2003, 73, 487-498. (b) McNamara C, R. et al. Proc. Natl. Acad. Sci. U.S.A., 2007, 104, 13525-13530. The screening of the compounds may be carried out by other methods and procedures known to persons skilled in the art.
Screening for TRPV3 Antagonist Using the ^45Calcium Uptake Assay
The inhibition of TRPV3 receptor activation was followed as inhibition of 2-aminoethxydiphenylborate (2-APB) induced cellular uptake of radioactive calcium. Test compounds were dissolved in dimethyl sulfoxide (DMSO) to prepare 20 mM stock solution and then diluted using plain medium with DMEM/F-12 containing 1.8 mM CaCl2 to get desired concentration. Final concentration of DMSO in the reaction was 0.5% (v/v). Human TRPV3 expressing CHO cells were grown in DMEM/F-12 medium with 10% FBS, 1% penicillin-streptomycin solution, 400 μg/mL of G-418. Cells were seeded 24 h prior to the assay in 96 well plates so as to get ˜50,000 cells per well on the day of experiment. Cells were treated with test compounds for 10 minutes followed by addition of 2-APB at a final concentration of 500 μM and 5 μCi/mL ^45Ca^+2 for 4 minutes. Cells were washed and lysed using buffer containing 1% Triton X-100, 0.1% deoxycholate and 0.1% SDS. Radioactivity in the lysate was measured in Packardt Top count after addition of liquid scintillant. Concentration response curves were plotted as a % of maximal response obtained in the absence of test antagonist. IC50 value was calculated from concentration response curve by nonlinear regression analysis using GraphPad PRISM software.
Percentage inhibition at concentrations of 1.0 μM and 10.0 μM are given in the table along with IC50 (nM) details for selected examples.

Row | inhibition at 1 µM [%] | inhibition at 10 µM [%] | IC50 [nM] | SMILES | Percentage inhibition at 1.0 μM [%] | Percentage inhibition at 10.0 μM [%]
1 | 51.8 | 93.1 |  | CCCCCOc1c(/C=C/c2nc3sccn3c2C(=O)Nc2nc(C(F)(F)F)cs2)cccc1OC(F)F [Example 33] |  | 
2 | 78.1 | 95 | 100 to 250 | CCCCCOc1c(/C=C/c2nc3sccn3c2C(=O)Nc2nc(C3CC3)cs2)cccc1OC(F)F [Example 34] |  | 
3 | 84.3 | 96.5 | < 100 | O=C(Nc1nc(C2CC2)cs1)c1c(/C=C/c2cccc(OC(F)F)c2OCC2CCC2)nc2sccn12 [Example 35, 6-{(E)-2-[2-(Cyclobutylmethoxy)-3-(difluoromethoxy)phenyl]vinyl}-N-(4-cyclopropyl-1,3-thiazol-2-yl)imidazo[2,1-b][1,3]thiazole-5-carboxamide] |  | 
4 | 93.7 | 97.7 | 100 to 250 | O=C(Nc1nc(C(F)(F)F)cs1)c1c(/C=C/c2cccc(OC(F)F)c2OCC2CCC2)nc2sccn12 [Example 36, 6-{(E)-2-[2-(Cyclobutylmethoxy)-3-(difluoromethoxy)phenyl]vinyl}-N-[4-(trifluoro-methyl)-1,3-thiazol-2-yl]imidazo[2,1-b][1,3]thiazole-5-carboxamide] |  | 
5 | 76.1 | 58.7 |  | CC(C)(C)COc1c(/C=C/c2nc3ccccn3c2C(=O)Nc2nc(C3CC3)cs2)cccc1OC(F)F [Example 39, 2-{(E)-2-[2-(2,2-Dimethylpropoxy)-3-(difluoromethoxy)phenyl]vinyl}-N-(4-cyclo-propyl-1,3-thiazol-2-yl)imidazo[1,2-a]pyridine-3-carboxamide] |  | 

The next lines start with the molecule.

Row | SMILES | inhibition at 1 µM [%] | inhibition at 10 µM [%] | IC50 [nM] | Percentage inhibition at 1.0 μM [%] | Percentage inhibition at 10.0 μM [%]
6 | CC(C)(C)COc1c(/C=C/c2nc3sccn3c2C(=O)NCC(F)(F)F)cccc1OC(F)F [Example 31, 6-{(E)-2-[3-(Difluoromethoxy)-2-(2,2-dimethylpropoxy)phenyl]vinyl}-N-(2,2,2-trifluoroethyl)imidazo[2,1-b][1,3]thiazole-5-carboxamide] | 60.9 | 97.7 |  |  | 
7 | CC(C)CCOc1c(/C=C/c2nc3sccn3c2C(=O)Nc2nc(C(F)(F)F)cs2)cccc1OC(F)F [Example 32, 6-{(E)-2-[3-(Difluoromethoxy)-2-[3-methylbutoxy)phenyl]vinyl}-N-[4-(trifluoromethyl)-1,3-thiazol-2-yl]imidazo[2,1-b][1,3]thiazole-5-carboxamide] | 63.7 | 96.6 |  |  | 
8 | COc1cccc(/C=C/c2nc3ccccn3c2C(=O)Nc2nc(C(F)(F)F)cs2)c1OCC(C)(C)C [Example 37] | 94.9 | 97.9 | < 100 |  | 
9 | CC(C)(C)COc1c(/C=C/c2nc3ccccn3c2C(=O)Nc2nc(C3CCC3)cs2)cccc1OC(F)F [Example 40, N-(4-Cyclobutyl-1,3-thiazol-2-yl)-2-{(E)-2-[3-(difluoromethoxy)-2-(2,2-dimethyl-propoxy)phenyl]vinyl}imidazo[1,2-c]pyridine-3-carboxamide] |  |  |  | 56.41 | 72.35
10 | CC(C)CCOc1c(/C=C/c2nc3ccccn3c2C(=O)Nc2nc(C(F)(F)F)cs2)cccc1OC(F)F [Example 41, 2-{(E)-2-[3-(Difluoromethoxy)-2-(3-methylbutoxy)phenyl]vinyl}-N-[4-(trifluoromethyl)-1,3-thiazol-2-yl]imidazo[1,2-c]pyridine-3-carboxamide] |  |  |  | 52.99 | 84.65

Reference: US8318928B2, “Fused imidazole carboxamides as TRPV3 modulators” (Glenmark Pharmaceuticals, S.A., priority 2008, dated 2012)
